The subject of data set [1] is colon adenocarcinomas. The note with it: studies referred to by Reddy et al; cited from earlier work.
The subject of data set [2] is II-4 cells in SCID mice. Kind of data set: Third study: topical alpha-DFMO, triamcinolone or the combination on II-4 tumor volume in SCID mice. The conditions noted are these: single agent, topical daily from 24 hours after implantation; alpha-DFMO 5% or 10%, triamcinolone 0.05% or 0.1%; FIG. 6. It counts as in vivo, mouse. The protocol:
The control groups received either no treatment (n=4), or the ointment base (hydrophilic ointment, U.S.P. alone (n=4), or the ointment base (hydrophilic ointment, U.S.P. alone (n=4). Treatments were given daily to the tumor-bearing […] skin continuously beginning 24 hours after tumor implantation. Palpable tumors were measured bi-dimensionally using calipers, three times per week, until tumor sizes approximated 1,500 mm^3 (about 1.5 g). The mice were then euthanized.

Data set [3] concerns II-4 human squamous cell skin cancer cells. Kind of data set: In vitro sulforhodamine B surviving fraction study of alpha-DFMO, triamcinolone and diclofenac. It is filed as cell-based. The conditions noted are these: single drug, Day 1 to Day 7. As to the method: This study was directed to II-4 human squamous cell skin cancer cells.
The cell culture was maintained as a monolayer culture. The cells were plated in 96 well microtiter plates on Day 0 of the study. Some of such wells were used as control wells, so no drugs were added thereto. The aforementioned combination of drugs was added to the microtiter test wells on Day 1. On Day 7, the plates were fixed with cold 10% trichloroacetic acid, and then washed four times with distilled water. Each plate was then stained with 0.4% sulforhodamine B. Excess stain was then removed by washing the plate four times with 1% acetic acid. The stained dye is then solubilized with 50 mM Tris. The stained plates were then “read”, i.e., measured for optical density, on an automatic plate reader at 540 nm. A lower optical density corresponds to a smaller volume of cancerous cells, and a higher optical density corresponds to a larger volume of cancerous cells. A surviving fraction factor fs is then computed for the treated well plates by taking the mean optical density of the treated well plates and dividing by the mean optical density of the control well plates.
As explained in the aforementioned article by Alberts, et al., a mathematically-derived expected fraction factor (fs*) can be computed for each three-drug combination by multiplying together the individual fraction factors for the three individual drugs. A ratio can then be computed for the actual experimentally-determined fraction factor fs divided by the expected fraction factor fs*, and this ratio is presented in the rightmost column of the table in FIG. 7. […] The lower the ratio, the more synergistic is the combination.

For data set [4], the system named is actinic keratoses. The note with it: 0.5% cream added to topical fluorouracil; cited from earlier work.
Data set [5] in a line: Skin reactions after topical application in studies treating actinic keratoses. It is filed as in vivo, human. The note with it: alpha-DFMO alone, without topical steroid or NSAID, past studies. From the text:
The new combination also provides a new method for treating vulvar neoplasia which is much more likely to be tolerated than currently available methods. […] Though topical application to the inside of the mouth may be more difficult, it is preferably achieved by providing a thick gel or cream, and applying to the affected area, preferably during the middle of the night when the mouth is dry.

Data set [6] in a line: Systemic uptake after topical alpha-DFMO, animal studies. It counts as in vivo. The conditions noted are these: topical application. From the text:
The generic name for alpha-DFMO is eflomithine, which is a racemic mixture of two enantiomers. […] Nonetheless, it may be possible to obtain the advantages of the present invention as described above using only one or the other of the two enantiomers that form the racemic mixture of alpha-DFMO; accordingly, the use of the term “alpha-DFMO” herein should be understood, for purposes of the present patent application, to include both the racemic mixture of the two enantiomers that normally make up alpha-DFMO, as well as each of the two enantiomers that collectively make up the racemic mixture of alpha-DFMO.

For data set [7], the system named is cervical intraepithelial neoplasia level III. The note with it: cited from earlier work.
The subject of data set [8] is UVB-induced skin cancers. The conditions noted are these: p.o.; 38% in placebo treated controls; cited from earlier work.
For data set [9], the system named is UVB-induced skin cancers. The conditions noted are these: topical, acetone vehicle; cited from earlier work.
The subject of data set [10] is human colon tumor xenograft (T6) cells. The note with it: in vitro; cited from earlier work.
Data set [11] relates to human lung adenocarcinoma cell line (A549). The conditions noted are these: A549, in vitro; cited from earlier work.
For data set [12], the system named is polyamine de novo synthesis and DNA polymerase. The conditions noted are these: colon and small intestine; cited from earlier work.
Data set [13] relates to Human Cervical Epithelial and Cancerous Cell Lines. The note with it: in vitro, dose dependent and time dependent, partially through inducing apoptosis; cited from earlier work.
Data set [14] has as its system actinic keratoses. The note with it: topical hydrophilic cream, human subjects; cited from earlier work.
The conditions of data set [15]: topical, cited from earlier work.
Where [16] appears, read: 0.06 to 1.0 g/m^2 per day for 30 days.

Where two headings read alike, the source gives them in different places.

Regarding `CC(C)Cc1ccc(C(C)C(=O)O)cc1` (centres unmarked) [ibuprofen], in data set [1], the “effect on colon adenocarcinomas” value is on record as “inhibited colon adenocarcinomas”.
As for `CN1C(C(=O)Nc2ccccn2)=C(O)c2ccccc2S1(=O)=O` [piroxicam], in data set [1], the “effect on colon adenocarcinomas” value is “inhibited colon adenocarcinomas”.
For the compound `CC1(C)O[C@@H]2C[C@H]3[C@@H]4CCC5=CC(=O)C=C[C@]5(C)[C@@]4(F)[C@@H](O)C[C@]3(C)[C@]2(C(=O)CO)O1` [triamcinolone, triamcinolone acetonide], in data set [2], the “rate of tumor growth (tumor volume over fifty days)” value was “decreases the rate of tumor growth”. The “surviving fraction factor fs” value in [3] (100 μM) was determined as 0.999; in data set [3] (150 μM), 0.999; in data set [3] (200 μM), 0.872. In data set [4], the “effect on inflammatory response to fluorouracil” value is on record as “reduce inflammatory response”. The “effect on the effectiveness of fluorouracil” value in data set [4] was “did not alter the effectiveness of the fluorouracil”.
As for `Cc1c(-c2cnccn2)ssc1=S` [oltipraz], the “effect on colon adenocarcinomas” value in data set [1] is listed as “inhibited colon adenocarcinomas”.
Consider `C=CCSSCC=C` [diallyl disulfide], for which the “effect on colon adenocarcinomas” value in data set [1] is given as “inhibited colon adenocarcinomas”.
For the compound `O=C(O)Cc1ccccc1Nc1c(Cl)cccc1Cl` [diclofenac], the “surviving fraction factor fs” value came out at 0.703 in data set [3] (150 μM) and 0.518 in [3] (175 μM).
In the case of `CC(=O)Oc1ccccc1C(=O)O` [aspirin], the “effect on colon adenocarcinomas” value in data set [1] is “inhibited colon adenocarcinomas”.
Take `NCCC[C@](N)(C(=O)O)C(F)F` (racemic) [alpha-DFMO, Alpha-Difluoromethylornithine]: in data set [2], the “rate of tumor growth (tumor volume over fifty days)” value was “decreases the rate of tumor growth”. In addition, the “surviving fraction factor fs” value in data set [3] (50 μM) is on record as 0.749. Also, the “surviving fraction factor fs” value in [3] (75 μM) is listed as 0.807. Moreover, in [5], the “incidence of skin reactions” value is given as about 20%. Moreover, the systemic uptake result in data set [6] is recorded as “negligible systemic uptake”. The overall response rate in data set [7] (0.06 to 1.0 g/m^2 per day for 30 days, 30 women) was 50%. Further, in data set [7] (setting [16]), the “patients experiencing a complete response” value was “five out of thirty”, the “patients experiencing a partial response (reduction to levels I or II)” value is “ten out of thirty” and the toxicity result is given as “minimal toxicity”. For the same compound, the “dose down to which serum polyamine modulation was significant” value in [7] (serum) is listed as 0.125 g/m^2 per day. Moreover, the “dose level down to which tissue polyamine modulation was significant” value in [7] (tissue) was 0.5 g/m^2 per day. Moreover, in data set [8], the “UVB-induced skin cancers in treated animals” value is given as 9%. In addition, in [9], the UVB-induced skin cancers entry is on record as “dramatically reduced”. In addition, in data set [10], the growth inhibition entry is listed as “dose-dependent growth-inhibitory effect”. In addition, the growth inhibition entry in data set [11] was “dose-dependent growth-inhibitory effect”. The “DMH-induced activation of polyamine de novo synthesis and DNA polymerase” value in [12] is given as “completely prevented”. Moreover, the “growth of cervical pre-cancerous and cancerous cells” value in [13] was “inhibits the growth”. The “number of AKs on the arms” value in data set [14] is recorded as “reduced the number of AKs”. Further, in data set [1], the “effect on colon adenocarcinomas” value was “inhibited colon adenocarcinomas”.
In the case of `O=c1[nH]cc(F)c(=O)[nH]1` [5-FU, 5-fluorouracil], the tolerability result in data set [15] (in the vagina) is listed as “relatively well tolerated”; in data set [15] (on the vulva), “extremely poorly tolerated”.
Regarding `CC1=C(CC(=O)O)c2cc(F)ccc2/C1=C\c1ccc([S+](C)[O-])cc1` (centres unmarked) [sulindac], the “effect on colon adenocarcinomas” value in data set [1] is reported as “inhibited colon adenocarcinomas”.

These data come from patent US20040106588A1 (priority 2002, published 2004).
